Patent US11186583B2, “5-alkylthio-7-[(4-arylbenzyl)amino]-1(2)H-pyrazolo[4,3-d]pyrimidines for treatment of lymphoma” (UNIVERZITA PALACKEHO V OLOMOUCI, priority 2018, dated 2021)

Assays:
CDK4/Cyclin D1 = molecular target: T1, CDK4/Cyclin D1 (Homo sapiens, UniProt P11802); test: CDK4/Cyclin D1 kinase inhibition, [γ-33P]ATP, […] peptide; format: biochemical; conditions: CDK panel, tested at least in duplicates
T1 construct: purchased ProQinase GmbH
Protocol: (§1) CDK2/Cyclin E and CDK1/Cyclin B kinases were produced in Sf9 insect cells via baculoviral infection and purified on a Ni-NTA column (Qiagen). CDK4/Cyclin D1, CDK5/p35NCK, CDK7/Cyclin H/MAT1 and CDK9/Cyclin T1 were purchased from ProQinase GmbH. The kinases were assayed with 1 mg/mL histone H1 (for CDK1/2/5) or (YSPTSPS)2 KK peptide (for CDK7/CDK9) or […] peptide (for CDK4) in the presence of […] (for CDK1/2/4/5/7/9), 0.05 mCi [γ-33P]ATP and of the test compound in a final volume of […], all in a reaction buffer (60 mM HEPES, NaOH, pH 7.5, 3 mM MgCl2, 3 mM MnCl2, 3 mM Na-orthovanadate, 1.2 mM DTT, 2.5 mg/50 ml PEG20.000). The reactions were stopped by adding […] of 3% aq. H3PO4. Aliquots were spotted onto P-81 phosphocellulose (Whatman), washed 3 times with 0.5% aq. H3PO4 and finally air-dried. Kinase inhibition was quantified using a FLA-7000 digital image analyzer (Fujifilm). The concentration of the test compounds required to decrease the CDK activity by 50% was determined from dose response curves and designated as IC50.

CDK9/Cyclin T1 = molecular target: T2, CDK9/Cyclin T1 (Homo sapiens, UniProt P50750); test: CDK9/Cyclin T1 kinase inhibition, [γ-33P]ATP, (YSPTSPS)2 KK peptide; format: biochemical; conditions: CDK panel, tested at least in duplicates
T2 construct: purchased ProQinase GmbH
Protocol: as §1

T2 sequence (P50750 whole entry): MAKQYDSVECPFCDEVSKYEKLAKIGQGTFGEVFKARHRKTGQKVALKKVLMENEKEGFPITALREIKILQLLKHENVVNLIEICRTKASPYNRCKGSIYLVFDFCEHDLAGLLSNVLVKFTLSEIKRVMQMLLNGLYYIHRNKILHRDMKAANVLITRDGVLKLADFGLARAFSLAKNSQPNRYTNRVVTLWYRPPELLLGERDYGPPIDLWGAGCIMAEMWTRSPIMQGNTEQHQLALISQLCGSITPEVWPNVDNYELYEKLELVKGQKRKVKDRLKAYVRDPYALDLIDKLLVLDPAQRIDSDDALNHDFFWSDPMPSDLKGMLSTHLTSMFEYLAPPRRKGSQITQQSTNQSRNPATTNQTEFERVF
T2 sequence (O60563 whole entry partner): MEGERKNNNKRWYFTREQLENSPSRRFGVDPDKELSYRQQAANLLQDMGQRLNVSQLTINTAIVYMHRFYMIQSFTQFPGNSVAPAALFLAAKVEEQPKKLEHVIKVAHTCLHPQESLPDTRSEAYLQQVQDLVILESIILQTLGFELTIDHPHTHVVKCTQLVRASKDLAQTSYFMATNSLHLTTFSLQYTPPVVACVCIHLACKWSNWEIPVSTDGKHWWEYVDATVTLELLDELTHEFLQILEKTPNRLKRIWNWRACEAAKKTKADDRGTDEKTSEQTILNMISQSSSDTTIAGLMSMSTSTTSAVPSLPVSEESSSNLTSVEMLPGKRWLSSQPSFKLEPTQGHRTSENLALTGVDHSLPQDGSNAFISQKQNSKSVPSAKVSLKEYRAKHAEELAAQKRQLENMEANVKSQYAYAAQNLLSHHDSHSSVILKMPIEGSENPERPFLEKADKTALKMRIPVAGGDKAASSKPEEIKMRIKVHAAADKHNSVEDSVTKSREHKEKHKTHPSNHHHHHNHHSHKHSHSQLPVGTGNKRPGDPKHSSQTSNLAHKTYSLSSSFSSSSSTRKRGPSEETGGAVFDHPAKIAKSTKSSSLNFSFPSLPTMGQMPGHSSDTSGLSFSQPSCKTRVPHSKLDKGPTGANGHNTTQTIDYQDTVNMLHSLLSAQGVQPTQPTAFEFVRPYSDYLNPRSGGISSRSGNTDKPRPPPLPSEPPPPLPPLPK
T1 sequence (P11802 whole entry): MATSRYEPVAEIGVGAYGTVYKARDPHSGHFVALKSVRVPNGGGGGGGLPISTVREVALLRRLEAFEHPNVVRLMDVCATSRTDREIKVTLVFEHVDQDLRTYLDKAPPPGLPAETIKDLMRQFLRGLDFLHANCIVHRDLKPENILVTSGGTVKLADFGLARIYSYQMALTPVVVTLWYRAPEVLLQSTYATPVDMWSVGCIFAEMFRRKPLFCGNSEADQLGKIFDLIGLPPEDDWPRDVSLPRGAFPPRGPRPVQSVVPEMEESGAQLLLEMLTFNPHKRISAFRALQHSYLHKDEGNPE
T1 sequence (P24385 whole entry partner): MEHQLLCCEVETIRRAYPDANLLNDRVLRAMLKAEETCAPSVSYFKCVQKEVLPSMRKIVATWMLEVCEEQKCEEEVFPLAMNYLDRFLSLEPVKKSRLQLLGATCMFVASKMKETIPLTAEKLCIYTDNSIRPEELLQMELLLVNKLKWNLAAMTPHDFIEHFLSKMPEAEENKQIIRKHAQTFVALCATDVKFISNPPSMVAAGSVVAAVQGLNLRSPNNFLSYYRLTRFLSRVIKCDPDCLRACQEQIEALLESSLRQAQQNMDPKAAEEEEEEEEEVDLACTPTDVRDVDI

CC[C@@H](CO)Nc1nc(NCc2ccc(-c3ccccn3)cc2)c2ncn(C(C)C)c2n1 [CR8, (2S)-2-[[9-propan-2-yl-6-[(4-pyridine-2-ylphenyl)methylamino]purin-2-yl]amino]butan-1-ol]
IC50 (CDK4/Cyclin D1): 26.1 µM
IC50 (CDK9/Cyclin T1): 0.272 ± 0.038 µM
